Measurements from patent US20250221988A1 (Cullgen (Shanghai), Inc., priority 2022, published 2025).
pIC50: −log10 of the molar value. Where two headings read alike, the source gives them in different places.

Legend:
[1] = system: MV4;11 cells; assay: Cell viability assay (CellTiter-Glo) in MV4;11 cells; type: cell-based; conditions: read-out: MV4; for pIC50: compound alone, 11 IC50
Method in brief: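 5000 cells/well in RPMI 1640 or DMEM with 10% FBS, treated with 8- or 12-point 3-fold compound dilutions, with or without gilteritinib (10 nM for MV4;11, 20 nM for MOLM-13). Viability by CellTiter-Glo after three days; IC50 by nonlinear least-squares regression.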

[2] = system: MOLM-13 cells; assay: Cell viability assay (CellTiter-Glo) in MOLM-13 cells; type: cell-based; conditions: for pIC50: 72 h, compound alone, read-out: MOLM-13 IC50
[3] = Homo sapiens, MV4-11, 72 h, MV4;11 cells, three days
[4] = MV4;11 cells, with 10 nM gilteritinib, three days, 11 IC50 (nM) + 10 nM Gil
[5] = Homo sapiens, MOLM-13 cells, three days
[6] = MOLM-13 cells, with gilteritinib, three days, read-out: MOLM-13 IC50 (nM) + 10 nM Gil
[7] = Homo sapiens, MV4-11, 72 h, 11 IC50 (nM)
[8] = 11 IC50 (nM) + 10 nM Gil, MV4;11 cells, with 10 nM gilteritinib, three days
[9] = Homo sapiens, MOLM-13, 72 h, read-out: MOLM-13 IC50 (nM)
[10] = read-out: MOLM-13 IC50 (nM) + 10 nM Gil, MOLM-13 cells, with gilteritinib, three days

Structure (SMILES)	pIC50 [1, 3]	IC50 [1, 4] [nM]	pIC50 [2, 5]	IC50 [2, 6] [nM]	IC50 [1, 7] [nM]	IC50 [1, 8] [nM]	IC50 [2, 9] [nM]	IC50 [2, 10] [nM]	sensitization of AML cells to GSPT1 degraders by FLT3 inhibition ([2]; MOLM-13 cells, with or without 20 nM gilteritinib, 3 days)
Cc1cc(F)cnc1-c1cn([C@H]2C[C@H](CNc3ccc4c(c3)CN(C3CCC(=O)NC3=O)C4=O)C2)nc1C1CC1 (stereo partly drawn) [GS-676, 3-(5-(((Trans-3-(3-cyclopropyl-4-(5-fluoro-3-methylpyridin-2-yl)-1H-pyrazol-1-yl)cyclobutyl)methyl)amino)-1-oxoisoindolin-2-yl)piperidine-2,6-dione]	> 8.00	< 10	> 8.00	< 10					
Cn1ccc2nc(-c3cn([C@H]4C[C@H](CNc5ccc6c(c5)C(=O)N(C5CCC(=O)NC5=O)C6=O)C4)nc3C3CC3)ccc21 (stereo partly drawn) [GS-695, 5-(((Trans-3-(3-cyclopropyl-4-(1-methyl-1H-pyrrolo[3,2-b]pyridin-5-yl)-1H-pyrazol-1-yl)cyclobutyl)methyl)amino)-2-(2,6-dioxopiperidin-3-yl)isoindoline-1,3-dione]	7.00 to 8.00	< 10	7.00 to 8.00	< 10					
O=C1CCC(N2C(=O)c3ccc(NC[C@H]4C[C@H](n5cc(-c6ncc(F)cc6C6CCNCC6)c(C6CC6)n5)C4)cc3C2=O)C(=O)C1 (stereo partly drawn) [GS-686, 5-(((Trans-3-(3-cyclopropyl-4-(5-fluoro-3-(piperidin-4-yl)pyridin-2-yl)-1H-pyrazol-1-yl)cyclobutyl)methyl)amino)-2-(2,4-dioxocyclohexyl)isoindoline-1,3-dione]	< 6.00	100 to 1000	< 6.00	100 to 1000					
CC(C)n1cc2c(-c3cn([C@H]4C[C@H](CNc5ccc6c(c5)C(=O)N(C5CCC(=O)NC5=O)C6=O)C4)nc3C3CC3)ncc(F)c2n1 (stereo partly drawn) [GS-743, 5-(((Trans-3-(3-cyclopropyl-4-(7-fluoro-2-isopropyl-2H-pyrazolo[4,3-c]pyridin-4-yl)-1H-pyrazol-1-yl)cyclobutyl)methyl)amino)-2-(2,6-dioxopiperidin-3-yl)isoindoline-1,3-dione]	> 8.00	< 10	> 8.00	< 10					
Cc1nc(-c2cn([C@H]3C[C@H](CNc4cc5c(cc4F)C(=O)N(C4CCC(=O)NC4=O)C5=O)C3)nc2C2CC2)ccc1F (stereo partly shown) [GS-716]	< 6.00		< 6.00						
O=C1CCC(N2C(=O)c3ccc(NC[C@H]4C[C@H](n5cc(-c6cnc7ccc(N8CCC(O)C8)cc7n6)c(C6CC6)n5)C4)cc3C2=O)C(=O)N1 (stereo partly drawn) [GS-659, 5-(((Trans-3-(3-cyclopropyl-4-(7-(3-hydroxypyrrolidin-1-yl)quinoxalin-2-yl)-1H-pyrazol-1-yl)cyclobutyl)methyl)amino)-2-(2,6-dioxopiperidin-3-yl)isoindoline-1,3-dione]	> 8.00	< 10	> 8.00	< 10					
COc1cnc2c(c1)c(C1CC1)nn2[C@H]1C[C@H](CNc2ccc3c(c2)C(=O)N(C2CCC(=O)NC2=O)C3=O)C1 (stereo partly drawn) [GS-682, 5-(((Trans-3-(3-cyclopropyl-5-methoxy-1H-pyrazolo[3,4-b]pyridin-1-yl)cyclobutyl)methyl)amino)-2-(2,6-dioxopiperidin-3-yl)isoindoline-1,3-dione]	7.00 to 8.00	< 10	6.00 to 7.00	10 to 100					
O=C1CCC(N2C(=O)c3ccc(NCCC[C@H]4C[C@H](n5cc(-c6nccc7c6NCCC7)c(C6CC6)n5)C4)cc3C2=O)C(=O)N1 (stereo partly drawn) [GS-685, 5-((3-(Trans-3-(3-cyclopropyl-4-(1,2,3,4-tetrahydro-1,7-naphthyridin-8-yl)-1H-pyrazol-1-yl)cyclobutyl)propyl)amino)-2-(2,6-dioxopiperidin-3-yl)isoindoline-1,3-dione]	< 6.00	100 to 1000	< 6.00	100 to 1000					
COc1ccnc2c1c(C1CC1)nn2[C@H]1C[C@H](CNc2ccc3c(c2)C(=O)N(C2CCC(=O)NC2=O)C3=O)C1 (stereo partly drawn) [GS-681, 5-(((Trans-3-(3-cyclopropyl-4-methoxy-1H-pyrazolo[3,4-b]pyridin-1-yl)cyclobutyl)methyl)amino)-2-(2,6-dioxopiperidin-3-yl)isoindoline-1,3-dione]	< 6.00	100 to 1000	< 6.00	10 to 100					
O=C1CCC(N2C(=O)c3ccc(NC[C@H]4C[C@H](n5cc(-c6cccc(N7CC(O)C7)n6)c(C6CC6)n5)C4)cc3C2=O)C(=O)N1 (stereo partly drawn) [GS-647, 5-(((Trans-3-(3-cyclopropyl-4-(6-(3-hydroxyazetidin-1-yl)pyridin-2-yl)-1H-pyrazol-1-yl)cyclobutyl)methyl)amino)-2-(2,6-dioxopiperidin-3-yl)isoindoline-1,3-dione]	< 6.00	100 to 1000	< 6.00	10 to 100					
COC1CCCCC1c1cn([C@H]2C[C@H](CNc3ccc4c(c3)C(=O)N(C3CCC(=O)NC3=O)C4=O)C2)nc1C1CC1 (stereo partly drawn) [GS-646, 5-(((Trans-3-(3-cyclopropyl-4-(2-methoxycyclohexyl)-1H-pyrazol-1-yl)cyclobutyl)methyl)amino)-2-(2,6-dioxopiperidin-3-yl)isoindoline-1,3-dione]	7.00 to 8.00	10 to 100	6.00 to 7.00	10 to 100					
O=C1CCC(N2Cc3ccc(CC[C@H]4C[C@H](n5cc(-c6cnc7ccccc7n6)c(C6CC6)n5)C4)cc3C2=O)C(=O)N1 (stereo partly drawn) [GS-725, 3-(6-(2-(Trans-3-(3-cyclopropyl-4-(quinoxalin-2-yl)-1H-pyrazol-1-yl)cyclobutyl)ethyl)-1-oxoisoindolin-2-yl)piperidine-2,6-dione]					100 to 1000	10 to 100	> 1000	100 to 1000	
O=C1CCC(N2C(=O)c3ccc(NC[C@H]4C[C@H](n5cc(C6CCCC(O)C6)c(C6CC6)n5)C4)cc3C2=O)C(=O)N1 (stereo partly drawn) [GS-703, 5-(((Trans-3-(3-cyclopropyl-4-(3-hydroxycyclohexyl)-1H-pyrazol-1-yl)cyclobutyl)methyl)amino)-2-(2,6-dioxopiperidin-3-yl)isoindoline-1,3-dione]	7.00 to 8.00	10 to 100	6.00 to 7.00	10 to 100					
Cn1cc(Nc2cn([C@H]3C[C@H](CNc4ccc5c(c4)C(=O)N(C4CCC(=O)NC4=O)C5=O)C3)nc2C2CC2)cn1 (stereo partly drawn) [GS-773, 5-(((Trans-3-(3-cyclopropyl-4-((1-methyl-1H-pyrazol-4-yl)amino)-1H-pyrazol-1-yl)cyclobutyl)methyl)amino)-2-(2,6-dioxopiperidin-3-yl)isoindoline-1,3-dione]	> 8.00	< 10	7.00 to 8.00	< 10					
CN1CC(c2ccc3ncc(-c4cn([C@H]5C[C@H](CNc6ccc7c(c6)C(=O)N(C6CCC(=O)NC6=O)C7=O)C5)nc4C4CC4)nc3c2)C1 (stereo partly drawn) [GS-655, 5-(((Trans-3-(3-cyclopropyl-4-(7-(1-methylazetidin-3-yl)quinoxalin-2-yl)-1H-pyrazol-1-yl)cyclobutyl)methyl)amino)-2-(2,6-dioxopiperidin-3-yl)isoindoline-1,3-dione]	6.00 to 7.00	10 to 100	< 6.00	100 to 1000					
Cc1cccc(-c2cn(C3CC4(CC(CCNc5ccc6c(c5)C(=O)N(C5CCC(=O)NC5=O)C6=O)C4)C3)nc2C2CC2)n1 (stereo not shown) [GS-749, 5-((2-(6-(3-Cyclopropyl-4-(6-methylpyridin-2-yl)-1H-pyrazol-1-yl)spiro[3.3]heptan-2-yl)ethyl)amino)-2-(2,6-dioxopiperidin-3-yl)isoindoline-1,3-dione]	7.00 to 8.00	< 10	7.00 to 8.00	< 10					FLT3 inhibition sensitizes AML cells
Cn1ccnc1-c1cn([C@H]2C[C@H](CNc3ccc4c(c3)C(=O)N(C3CCC(=O)NC3=O)C4=O)C2)nc1C1CC1 (stereo partly drawn) [GS-687, 5-(((Trans-3-(3-cyclopropyl-4-(1-methyl-1H-imidazol-2-yl)-1H-pyrazol-1-yl)cyclobutyl)methyl)amino)-2-(2,6-dioxopiperidin-3-yl)isoindoline-1,3-dione]	< 6.00	100 to 1000	< 6.00	100 to 1000					
O=C1CCC(N2C(=O)c3ccc(NC[C@H]4C[C@H](n5cc(-c6cccc(N7CCC7)c6)c(C6CC6)n5)C4)cc3C2=O)C(=O)N1 (stereo partly drawn) [GS-653, 5-(((Trans-3-(4-(3-(azetidin-1-yl)phenyl)-3-cyclopropyl-1H-pyrazol-1-yl)cyclobutyl)methyl)amino)-2-(2,6-dioxopiperidin-3-yl)isoindoline-1,3-dione]					100 to 1000	10 to 100	> 1000	10 to 100	
Cn1ncc2cnc(-c3cn([C@H]4C[C@H](CNc5ccc6c(c5)C(=O)N(C5CCC(=O)NC5=O)C6=O)C4)nc3C(F)F)cc21 (stereo partly drawn) [GS-657, 5-(((Trans-3-(3-(difluoromethyl)-4-(1-methyl-1H-pyrazolo[4,3-c]pyridin-6-yl)-1H-pyrazol-1-yl)cyclobutyl)methyl)amino)-2-(2,6-dioxopiperidin-3-yl)isoindoline-1,3-dione]	7.00 to 8.00	< 10	7.00 to 8.00	< 10					
CC(C)n1ncc2nc(-c3cn([C@H]4C[C@H](CNc5ccc6c(c5)C(=O)N(C5CCC(=O)NC5=O)C6=O)C4)nc3C3CC3)ccc21 (stereo partly drawn) [GS-700, 5-(((Trans-3-(3-cyclopropyl-4-(1-isopropyl-1H-pyrazolo[4,3-b]pyridin-5-yl)-1H-pyrazol-1-yl)cyclobutyl)methyl)amino)-2-(2,6-dioxopiperidin-3-yl)isoindoline-1,3-dione]	6.00 to 7.00	10 to 100	6.00 to 7.00	10 to 100					
